This is an account of results in US9290777B2, “Putative cytokinin receptor and methods for use thereof” (NATIONAL UNIVERSITY OF SINGAPORE, priority 2007, dated 2016).

Entries after “also recorded” stand apart in the source; their conditions may differ.

The test system of data set [1] is tobacco genome in suspension cultures. Particulars: relative to untreated material; cited from earlier work.
Data set [2] has as its target T1, purified TAP-HOG1 (Arabidopsis thaliana, UniProt O23255).
T1 construct: Protein A (ProtA part of the TAP tag, TEV site between ProtA and CBP) (N, cleaved yes); made in house; host or cells: transgenic Arabidopsis thaliana harbouring 35S:TAP-HOG1
The experiment in a line: biochemical. The data set is classed as binding. The protocol: (§1) Cytokinin binding affinity and thermodynamic analysis of the interaction between HOG1 and cytokinins was examined by ITC (MCSITC, Microcal, Northampton, USA). Three naturally occurring cytokinins (zeatin, benzyladenine and isopentenyl adenine) and thidiazuron (an urea-derived synthetic cytokinin) were used. Additionally, adenosine and NAD were used as control molecules to verify the binding specificity of HOG1 to cytokinins. Data were analyzed by MICROCAL ORIGIN version 2.9 using the best-fit, nonlinear least-squares method for one binding site. The binding stoichiometry (n), and association constant (KA) were calculated from the fitted curves. Subsequently, KD was calculated as 1/KA. Raw heat data were corrected to baseline drift obtained from injections of 0.1 μM purified AHP1 into the sample cell containing 2 μM purified TAP-HOG1. Binding isotherms were created by plotting the heat peak areas against the molar ratio of AHP1 added to HOG1.
Cytokinin binding affinity and thermodynamic analysis of the interaction between HOG1 and cytokinins was examined by ITC (MCSITC, Microcal, Northampton, USA). TAP-HOG1 fusion protein was purified using published protocols (Forler et al. supra) from transgenic Arabidopsis plants harboring the 35S:TAP-HOG1 construct. 0.01 μM benzyladenine (a naturally occurring cytokinin) and 0.1 μM of purified TAP-HOG1 protein were used for each ITC assay with 25 injections (each injection of 2 μl at […] intervals at 37° C.). Data were analyzed with MICROCAL ORIGIN version 2.9 using the best-fit, nonlinear least-squares method for one binding site. The binding stoichiometry (n), and association constant (KA) were calculated from the fitted curves. Subsequently, KD was calculated as 1/KA.

For data set [3], the system named is HOG1 anti-sense suppression (AS) line 12 plants. The data set is described as follows: Exogenous cytokinin spray on HOG1 anti-sense suppression line, phenotype. In kind it is in vivo, Arabidopsis thaliana. Particulars: 0.01 μM spray on alternate days over four weeks. The protocol:
Three individual seedlings of OE line 6 and AS line 12 were sprayed on alternate days with zeatin or kinetin (0.01 μM), over a period of four weeks. Two WT plants were similarly treated for comparison. […] E) The control OE lines bolt at 4 leaf stage. B) and D) Three individuals of OE line 6 sprayed with zeatin and kinetin respectively, show bolting only after they have reached the 6-7 leaf stage. […] (Note that panels A, B, E and F are in the main FIG. 2 as panels G, H, I and J, and these are included here for ease of comparison only).

Data set [4] has as its target T2, recombinant AHP1 with six-His and thioredoxin tags, expressed in E. coli (Arabidopsis thaliana, UniProt Q9ZNV9 1-154).
T2 construct: This is the form used in ITC; also called purified AHP1; Arabidopsis histidine phosphotransfer protein 1; not shown: thioredoxin tag and six-His tag from the vector PET32EK/LIC (Novagen)
T2 sequence (looked up): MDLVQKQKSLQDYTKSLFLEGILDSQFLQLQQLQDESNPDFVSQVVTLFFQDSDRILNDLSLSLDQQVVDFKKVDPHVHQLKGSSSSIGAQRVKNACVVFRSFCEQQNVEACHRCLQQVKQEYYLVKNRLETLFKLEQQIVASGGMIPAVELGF
The experiment in a line: ITC; purified AHP1 injected into a cell containing purified TAP-HOG1. How it is done:
C) Purification of TAP-HOG1 complex. […] D) SDS-polyacrylamide gel electrophoresis of recombinant AHP1 purification. AHP1 was expressed with six-His and thioredoxin-tags in *E. coli*. Lane 1 has total cell lysate and purified AHP1 with the tags is in lane 2. E) TAP-HOG1 and AHP1 interaction was performed with ITC.
as §1, with “µM” for “μM”
A general note: Isothermal titration calorimetry measures the heat released or taken up as one component is titrated into another.

Data set [5] deals with S-adenosyl homocysteine hydrolase (SAHH) activity. The data set is described as follows: SAHH spectrophotometric assay. In kind it is biochemical, Arabidopsis thaliana. As to conditions: purified protein.
Data set [6] addresses T3, purified TAP-HOG1 (Arabidopsis thaliana, UniProt O23255).
T3 construct: Protein A (ProtA part of the TAP tag, TEV site between ProtA and CBP) (N, cleaved yes); made in house; host or cells: TAP-HOG1: transgenic Arabidopsis thaliana (35S:TAP-HOG1); AHP1: E. coli BL21 (PET32EK/LIC)
T3 sequence (O23255 whole entry, looked up): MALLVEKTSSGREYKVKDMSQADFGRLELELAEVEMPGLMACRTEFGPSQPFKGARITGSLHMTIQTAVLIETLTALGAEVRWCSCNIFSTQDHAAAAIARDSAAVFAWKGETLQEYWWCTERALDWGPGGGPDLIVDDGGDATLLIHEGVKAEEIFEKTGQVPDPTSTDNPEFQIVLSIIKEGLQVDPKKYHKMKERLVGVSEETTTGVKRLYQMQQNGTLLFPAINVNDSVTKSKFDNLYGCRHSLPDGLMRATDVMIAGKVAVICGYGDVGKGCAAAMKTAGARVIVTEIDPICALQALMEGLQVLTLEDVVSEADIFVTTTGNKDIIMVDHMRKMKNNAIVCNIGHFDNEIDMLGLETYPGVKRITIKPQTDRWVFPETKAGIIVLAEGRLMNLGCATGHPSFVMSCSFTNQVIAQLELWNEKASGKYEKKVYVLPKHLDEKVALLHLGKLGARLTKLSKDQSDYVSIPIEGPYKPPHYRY
The data set is described as follows: TAP-HOG1 and AHP1 interaction by ITC. The data set is classed as binding. Particulars: recombinant AHP1 injected into purified TAP-HOG1, read-out: KD (dissociation constant). How it is done:
as §1
TAP-HOG1 protein complex was purified using the ProtA and CBP tags as described before in Forler et al. (supra). For ProtA pulldown, IgG Sepharose beads (Amersham Biosciences #17-0969-01) and for CBP pulldown Calmodulin affinity resin (Stratagene #214303-52) were used. The purified protein was subjected to SDS-PAGE and blotted to PVDF membranes for Western blot analysis using standard protocols. […]

Setting [7] is: ITC, control molecules, purified TAP-HOG1, read-out: KD (dissociation constant).

The Kd is the concentration at which binding is half-saturated.

As to `Nc1ncnc2c1ncn2C[C@H](O)CO` [(S)-9-(2,3-dihydroxypropyl)adenine], the “decrease of SAM:SAH ratio at which genome hypomethylation occurred” value in data set [1] is on record as 300 folds.

Take `NC(=O)c1ccc[n+]([C@@H]2O[C@H](COP(=O)([O-])OP(=O)(O)OC[C@H]3O[C@@H](n4cnc5c(N)ncnc54)[C@H](O)[C@@H]3O)[C@@H](O)[C@H]2O)c1` [NAD+]: on purified TAP-HOG1 [2] (setting [7]), the Kd came to 39500 nM.

With `Nc1ncnc2nc[nH]c12` [adenine], the Kd on purified TAP-HOG1 [2] (setting [7]) worked out at 2100 nM.

In the case of `c1coc(CNc2ncnc3[nH]cnc23)c1` [kinetin], the “phenotype compared with control AS lines” value in data set [3] is recorded as “did not show any significant difference in phenotype”.

As to `O=C(Nc1ccccc1)Nc1cnns1` [thidiazuron], at purified TAP-HOG1 [2] (ITC, performed as with zeatin), the “binding to HOG1” value was “does not bind”.

`C/C(=C\CNc1ncnc2[nH]cnc12)CO` [zeatin] had a Kd on purified TAP-HOG1 [2] of 16.9 to 20.6 nM. For the same molecule, in data set [3], the “phenotype compared with control AS lines” value was “did not show any significant difference in phenotype”.

B1: purified TAP-HOG1 protein (HOG1 retaining the CBP portion of the TAP tag, 60 kDa) (receptor, not shown: small tags and cut ends)
chain: MALIVEKTSGGREYKVKDMSQADFGRLELELAEVEMPGLMACRTEFGPAQPFKGARITGSLHMTIQTAVLIETLTALGAEVRWCSCNIFSTQDHAAAAIARDSAAVFAWKGETLQEYWWCTERALDWGPGGGPDLIVDDGGDATLLIHEGVKAEEIFEKTGQVPDPTSTDNPEFQIVLSIIKEGLQVDPKKYHKMKGRLVGVSEETTTGVKRLYQMQESGALLFPAINVNDSVTKSKFDNLYGCRHSLPDGLMRATDVMIAGKVAVICGYGDVGKGCAAAMKTAGARVIVTEIDPICALQAMMEGLQVLTLEDVVSEADIFVTTTGNKDIIMVDHMRKMKNNAIVCNIGHFDNEIDMQGLETFPGVKRITIKPQTDRWVFPDTKSGIIVLAEGRLMNLGCATGHPSFVMSCSFTNQVIAQLELWNEKSSGKYEKKVYVLPKHLDEKVAALHLGKLGAKLTKLTKDQSDYVSIPIEGPYKPPHYRY
notes: Purified from transgenic Arabidopsis thaliana carrying 35S:TAP-HOG1, using the Prot A and CBP tags; After purification it keeps only the CBP portion of the tag (60 kDa; HOG1 alone would be 56 kDa); also called Homology-dependent gene silencing 1
Take B1: the dissociation constant (Kd) in data set [4] amounted to 23.8 nM.

B2: TAP-HOG1: TAP-tagged HOG1 polypeptide (SEQ ID NO: 1) purified from transgenic Arabidopsis thaliana (protein, listed as Arabidopsis thaliana)
chain: B1 chain
modifications: TAP tag; HOG1 Arabidopsis thaliana
In the case of B2, the SAHH enzyme activity result in data set [5] was “lacks measurable SAHH activity; also recorded: lacks SAHH enzyme activity”.

B3: AHP1: recombinant Arabidopsis histidine phosphotransfer protein 1 with six-HIS and thioredoxin tags, expressed in E. coli (protein)
chain: T2 sequence (looked up)
modifications: left off: large carriers
notes: recombinant Arabidopsis histidine phosphotransfer protein 1 with six-HIS and thioredoxin tags, expressed in E. coli
Take B3: in the data set with purified TAP-HOG1 [6], the Kd was 23.8 nM.
